From patent US4399137A, “6-Imidazol-1-yl-3-hydrazino-pyridazines, their preparation and antihypertensive use” (BASF Aktiengesellschaft, priority 1979, dated 1983)
Where two headings read alike, the source gives them in different places.

Experiments:
narcotized rats = experiment: Hypotensive action (blood pressure lowering) on narcotized rats, intravenous administration; format: in vivo, rat (Sprague Dawley); conditions: for ED20: Rattus norvegicus, dose producing a 20% lowering of blood pressure, read-out: Hypotensive action ED 20%; for ED20 / Hypotensive action R.E. (relative effectiveness) / factor by which blood pressure-lowering doses are lower than the dihydralazine doses: narcotized rats; for ED20 / Hypotensive action R.E. (relative effectiveness): intravenous; for Hypotensive action R.E. (relative effectiveness): dihydralazine = 1.00; for blood pressure-lowering properties (in words): general statement, no specific model named; for factor by which blood pressure-lowering doses are lower than the dihydralazine doses: relative to dihydralazine
Method: The blood pressure was measured in the […]. The substance was administered into the jugular vein (using 1 ml/kg of an aqueous solution). The ED 20% was determined, as the dose producing a 20% lowering of blood pressure, from the linear regression between the logarithm of the dose (mg/kg) and the relative lowering of the blood pressure (Δ%).

[1] = tested on: spontaneously hypertonic rats; experiment: Anti-hypertensive action on spontaneously hypertonic rats (SHR), oral administration; format: in vivo, rat (Okamoto; conditions: for ED20: Rattus norvegicus, dose which lowers systolic pressure by 20%, 2 hours after administration, read-out: Anti-hypertensive action ED 20%; for ED20 / Anti-hypertensive action R.E. (relative effectiveness): SHR, oral; for Anti-hypertensive action R.E. (relative effectiveness): dihydralazine = 1.00; for times as effective as dihydralazine: wake spontaneously hypertonic rats
Method: The anti-hypertensive action was determined on spontaneously hypertonic rats (Okamoto). The substances were administered orally to groups of from 4 to 8 male animals. Before, and 2 hours after, administration, the systolic blood pressure was measured on the tail of the rat by means of a piezoelectric crystal sensor. The ED 20 was determined, as the dose which lowers the systolic pressure by 20%, from the linear regression between the logarithm of the dose (mg/kg) and the relative lowering of blood pressure (Δ%), with due account taken of the values found with placebo-treated control animals.

[2] = Acute toxicity (LD 50), intraperitoneal administration; format: in vivo; conditions: mouse, in vivo; for LD50 at 168 h: ip, mice, intraperitoneal, 50% of the animals died within 7 days
Method: (§1) To determine the acute toxicity (LD 50), the substances were administered intraperitoneally to groups of 10 female NMRI mice (weighing 20-25 g each).
(§2) The LD 50 was computed (by Probit analysis) as the dose after which 50% of the animals died within 7 days.

mice = experiment: as above; format: in vivo; conditions: mice, intraperitoneal; dihydralazine = 1.00
Method: as §1, §2

[3] = ratio LD 50 / anti-hypertensive dose, read-out: toxic doses (LD 50) times as great as the anti-hypertensive doses
[4] = LD 50 (mice, i.p.) relative to anti-hypertensive ED 20% (SHR, oral), read-out: Therapeutic range Q

| SMILES | ED20 (narcotized rats) [mg/kg] | Hypotensive action R.E. (relative effectiveness) (narcotized rats) | ED20 [1] [mg/kg] | Anti-hypertensive action R.E. (relative effectiveness) [1] | LD50 at 168 h [2] [mg/kg] | selectivity ratio [2, 3] | selectivity ratio [2, 4] | Toxicity R.E. (mice) | blood pressure-lowering properties (in words) (narcotized rats) | factor by which blood pressure-lowering doses are lower than the dihydralazine doses (narcotized rats) | times as effective as dihydralazine [1] |
| --- | --- | --- | --- | --- | --- | --- | --- | --- | --- | --- | --- |
| NNc1nnc(NN)c2ccccc12 [Dihydralazine, dihydralazine, reference compound] | 0.0854 | 1.00 | 6.85 | 1.00 | 206 | 30 | 30.1 | 1.00 |  |  |  |
| Cc1nccn1-c1ccc(NN)nn1 [Example 1 a, 3-Hydrazino-6-(2-methyl-imidazol-1-yl)-pyridazine] | 0.031 | 2.75 | 1.41 | 4.86 | 193 |  | 137 | 1.06 | Particularly active | 2.8 | 4.9 |
| CCc1nccn1-c1ccc(NN)nn1 [Example 1 c, 3-Hydrazino-6-(2-ethyl-imidazol-1-yl)-pyridazine] | 0.0638 | 1.34 | 2.91 | 2.35 | 156 |  | 53.6 | 1.32 | Particularly active | 1.3 | 2.4 |
| CC(C)=NNc1ccc(-n2ccnc2C)nn1 [Example 2 a, 3-(2-Isopropylidene-hydrazino)-6-(2-methyl-imidazol-1-yl)-pyridazine] | 0.0464 | 1.84 | 2.46 | 2.78 | 98.6 | 40 | 40.1 | 2.09 | Particularly active |  |  |
| CCc1nccn1-c1ccc(NN=C(C)C)nn1 [Example 2 b, 3-(2-Isopropylidene-hydrazino)-6-(2-ethyl-imidazol-1-yl)-pyridazine] | 0.0464 | 1.84 | 2.48 | 2.76 | 124 |  | 50.1 | 1.66 | Particularly active |  |  |
